Data set [1] deals with CO2-induced amnesia in mice. Put plainly: Effect on CO2-induced amnesia in mice (passive avoidance response). Format: in vivo, mice (male ICR). Particulars: p.o.; for Anti-amnesia (latency, percent change of the mean time of the vehicle-treated control group): 30 min before the test, saline = 100; for minimal effective dose: Mus musculus, po, mice, read-out: Anti-amnesia MED (minimum effective dose for CO2-induced amnesia). The method, then: Effect on CO2 -induced amnesia in mice Effect of the compound (I) on […] of passive avoidance response, induced by exposing mice to 100% CO2 gas, was evaluated. Male ICR mice (Japan Clea) aged 5 weeks were used. The experimental apparatus consisted of two chambers, in which one illuminated chamber (9×9×25 cm) was connected to a dark chamber (25×25×30 cm) with a guillotine door. Each mouse was placed in the illuminated chamber and then allowed to enter the dark one. When the mouse entered the dark chamber, the door was closed and AC 0.5 mA footshock was applied to the floor grid of the dark chamber. The mouse can memorize the experience after receiving the uncomfortable stimulus for a few weeks. Next, the consolidation processes of memory were disturbed by an experimental manipulation: Each mouse was placed under the hypoxic condition by being placed into a 4L desiccator filled with 100% CO2 gas, immediately after receiving the footshock in the dark chamber. When his respiratory function was stopped, the mouse was taken out from the desiccator and given an artificial respiration till recovering spontaneous respiration. This procedure disturbed the consolidation of the memory (experience of footshock). On the next day, a retention test was performed to see whether the mouse memorized the footshock or not. In the test, the mouse was again placed in the illuminated compartment and the latency to enter the dark compartment was measured. The mice subjected to hypoxia entered the dark compartment with short latency, 10-20 sec. […] The ameliorating effect of compounds on the amnesia induced by hypoxia was evaluated by the latency time, and was expressed as the percent change of the mean time of the vehicle-treated control group (Table 6.).

The test system of data set [2] is mice. Put plainly: General Symptoms (Side Effects) in mice. The class given is in vivo. Set-up: key: +++: marked; ++: moderate; +: mild; -: nondetected. The settings on record: i.p., observed for 4 hours; for Hypothermia / Sedation / Tremor: central effect; for Diarrhea / Mydriasis / Salivation: peripheral effect. The method, then:
General Symptoms (Side Effects) Four mice were used for each group. Mice were placed in stainless steel cages (13×18×25 cm) and after a 1-hr habitation period the compounds were administered. […] Peripheral and central effects of the compounds were estimated with the incidences of diarrhea, salivation and mydriasis and with the incidences of tremor and sedation and a grade of hypothermia, respectively. The compounds which were soluble in saline were solubilized in saline and the other were suspended in 5% arabic gum solution. Each compound was administered intraperitoneally (i.p.).

The nature of data set [3]: LD50 value and Therapeutic index. Particulars: mouse, in vivo, po; for LD50: mice; for selectivity ratio: ratio of LD50 value to MED for CO2-induced amnesia. An excerpt: LD50 value and Therapeutic index
Ten mice were used for each group. LD50 value and therapeutic index were estimated with the dose (mg/kg, p.o.) which induced death in 50% of mice and with a ratio of LD50 value to a minimum effective dose (MED) for CO2 -induced amnesia, respectively.

[4] abbreviates: dose 0.3 mg/kg, * P < 0.05, ** P < 0.01.

Where a name gives a salt, the structure may show the parent alone.

The term LD50 denotes the dose expected to kill half of the subjects tested.

With `CON1C(=O)CC2(CCN(C(=O)OCCBr)CC2)C1=O` [Example 22, 8-(2-Bromoethoxycarbonyl)-2-methoxy-2,8-diazaspiro[4,5]decane-1,3-dione], the “Anti-amnesia (latency, percent change of the mean time of the vehicle-treated control group)” value in data set [1] (dose 1.0 mg/kg, * P < 0.05) came out at 311%. Besides, in data set [2], the Hypothermia result is on record as “+”, the Sedation entry is given as “+”, the Tremor result is reported as “-” and the Diarrhea result is “+”. Also, in data set [2], the Mydriasis result is listed as “+” and the Salivation result was “+”.

Take `CON1C(=O)CC2(CCNCC2)C1=O` [Example 9, 2-Methoxy-2,8-diazaspiro[4,5]decane-1,3-dionehydrochloride]: in data set [1], the minimal effective dose amounted to 0.1 mg/kg. For the same compound, the “Anti-amnesia (latency, percent change of the mean time of the vehicle-treated control group)” value in data set [1] (dose 0.1 mg/kg, * P < 0.05) is recorded as 227%. The “Anti-amnesia (latency, percent change of the mean time of the vehicle-treated control group)” value in data set [1] (setting [4]) came out at 321%. In data set [2], the Hypothermia result was “+”, the Sedation result was “++”, the Tremor entry was “-” and the Diarrhea result is given as “++”. Besides, in data set [2], the Mydriasis result was “-” and the Salivation result is reported as “+++”. For the same compound, in data set [3], the LD50 came to 2010 mg/kg and the selectivity ratio was 20100.

For `CON1C(=O)CC2(CCN(C)CC2)C1=O.Cl` [Example 1, 2-Methoxy-8-methyl-2,8-diazaspiro[4,5]decane-1,3-dione hydrochloride], in data set [1] (dose 0.1 mg/kg, * P < 0.05), the “Anti-amnesia (latency, percent change of the mean time of the vehicle-treated control group)” value is 277%. Also, in data set [2], the Hypothermia entry is “-”, the Sedation result is “++”, the Tremor result is “++” and the Diarrhea entry is on record as “-”. Also, in data set [2], the Mydriasis entry is on record as “-” and the Salivation result was “+++”.

As for `CCN1C(=O)CC2(CCN(C)CC2)C1=O` [RS-86, reference compound], the minimal effective dose in data set [1] was found to be 0.3 mg/kg. In addition, in data set [1] (setting [4]), the “Anti-amnesia (latency, percent change of the mean time of the vehicle-treated control group)” value amounted to 258%. In data set [2], the Hypothermia result was “+++”, the Sedation result is given as “+++”, the Tremor entry is “+” and the Diarrhea entry is given as “+++”. Also, in data set [2], the Mydriasis entry was “++” and the Salivation result is “+++”. In data set [3], the LD50 stood at 574 mg/kg and the selectivity ratio is 1910.

These data come from patent US4804665A, “Azaspiro compounds and their use” (Takeda Chemical Industries, Ltd., priority 1986, dated 1989).
